Source: patent US20220265694A1, “COMPOSITIONS AND METHODS FOR TREATING AN INFECTION” (CMPD LICENSING, LLC, priority 2016, published 2022)

Columns and labels:
Moraxella catarrhalis = assay: Expected efficacy of antibiotic agents; details: expected efficacy against Moraxella catarrhalis; Gram: neg
Providencia rettgeri = assay: Expected efficacy of antibiotic agents; details: expected efficacy against Providencia rettgeri; Gram: neg
Serratia marcescens = assay: Expected efficacy of antibiotic agents; details: expected efficacy against Serratia marcescens; Gram: neg
Bartonella bacilliformis = assay: Expected efficacy of antibiotic agents; details: expected efficacy against Bartonella bacilliformis; Gram: neg
Salmonella typhi = assay: Expected efficacy of antibiotic agents; details: expected efficacy against Salmonella typhi; Gram: neg
Bacteroides fragilis = assay: Expected efficacy of antibiotic agents; details: expected efficacy against Bacteroides fragilis; Gram: anaer
Pseudomonas aeruginosa = assay: Expected efficacy of antibiotic agents; details: expected efficacy against Pseudomonas aeruginosa; Gram: neg
Enterobacter aerogenes = assay: Expected efficacy of antibiotic agents; details: expected efficacy against Enterobacter aerogenes; Gram: neg
Klebsiella oxytoca = assay: Expected efficacy of antibiotic agents; details: expected efficacy against Klebsiella oxytoca; Gram: neg
Enterococcus faecium = assay: Expected efficacy of antibiotic agents; details: expected efficacy against Enterococcus faecium; Gram: pos
Neisseria gonorrhoeae = assay: Expected efficacy of antibiotic agents; details: expected efficacy against Neisseria gonorrhoeae; Gram: neg
Proteus vulgaris = assay: Expected efficacy of antibiotic agents; details: expected efficacy against Proteus vulgaris; Gram: neg
[1] = system: Staphylococcus epidermidis; assay: Expected efficacy of antibiotic agents; details: expected efficacy against Staphylococcus epidermidis; Gram: pos
Neisseria meningitidis = assay: Expected efficacy of antibiotic agents; details: expected efficacy against Neisseria meningitidis; Gram: neg
Francisella tularensis = details: expected efficacy against Francisella tularensis; Gram: neg
Corynebacterium jeikeium = assay: Expected efficacy of antibiotic agents; details: expected efficacy against Corynebacterium jeikeium; Gram: pos
Morganella morganii = assay: Expected efficacy of antibiotic agents; details: expected efficacy against Morganella morganii; Gram: neg
Chlamydia pneumoniae = assay: Expected efficacy of antibiotic agents; details: expected efficacy against Chlamydia pneumoniae; Gram: n/a
Escherichia coli = assay: Expected efficacy of antibiotic agents; details: expected efficacy against Escherichia coli; Gram: neg
Pseudomonas fluorescens = assay: Expected efficacy of antibiotic agents; details: expected efficacy against Pseudomonas fluorescens; Gram: neg
Rickettsiae = details: expected efficacy against Rickettsiae; Gram: neg
Providencia stuartii = assay: Expected efficacy of antibiotic agents; details: expected efficacy against Providencia stuartii; Gram: neg
Citrobacter diversus = assay: Expected efficacy of antibiotic agents; details: expected efficacy against Citrobacter diversus; Gram: neg
Legionella pneumophila = details: expected efficacy against Legionella pneumophila; Gram: neg
Campylobacter jejuni = assay: Expected efficacy of antibiotic agents; details: expected efficacy against Campylobacter jejuni; Gram: neg
Shigella boydii = assay: Expected efficacy of antibiotic agents; details: expected efficacy against Shigella boydii; Gram: neg
Shigella sonnei = assay: Expected efficacy of antibiotic agents; details: expected efficacy against Shigella sonnei; Gram: neg
Yersinia pestis = details: expected efficacy against Yersinia pestis; Gram: neg
Vibrio cholerae = assay: Expected efficacy of antibiotic agents; details: expected efficacy against Vibrio cholerae; Gram: neg
[2] = system: Haemophilus parainfluenzae; assay: Expected efficacy of antibiotic agents; details: expected efficacy against Haemophilus parainfluenzae; Gram: neg
Shigella dysenteriae = assay: Expected efficacy of antibiotic agents; details: expected efficacy against Shigella dysenteriae; Gram: neg
Haemophilus influenzae = assay: Expected efficacy of antibiotic agents; details: expected efficacy against Haemophilus influenzae; Gram: neg
Shigella flexneri = assay: Expected efficacy of antibiotic agents; details: expected efficacy against Shigella flexneri; Gram: neg
Proteus mirabilis = assay: Expected efficacy of antibiotic agents; details: expected efficacy against Proteus mirabilis; Gram: neg
Klebsiella pneumoniae = assay: Expected efficacy of antibiotic agents; details: expected efficacy against Klebsiella pneumoniae; Gram: neg
[3] = system: Methicillin resistant staph aureus (MRSA); assay: Expected efficacy of antibiotic agents; details: expected efficacy against Methicillin resistant staph aureus (MRSA); Gram: pos
Citrobacter freundii = assay: Expected efficacy of antibiotic agents; details: expected efficacy against Citrobacter freundii; Gram: neg
Acinetobacter baumannii = assay: Expected efficacy of antibiotic agents; details: expected efficacy against Acinetobacter baumannii; Gram: neg
Mycoplasma pneumoniae = assay: Expected efficacy of antibiotic agents; details: expected efficacy against Mycoplasma pneumoniae; Gram: n/a
[4] = system: Klebsiella (Calymmatobacterium); assay: Expected efficacy of antibiotic agents; details: expected efficacy against Klebsiella (Calymmatobacterium); Gram: neg
Clostridium difficile = assay: Expected efficacy of antibiotic agents; details: expected efficacy against Clostridium difficile; Gram: anaer
[5] = system: Acinetobacter calcoaceticus; assay: Expected efficacy of antibiotic agents; details: expected efficacy against Acinetobacter calcoaceticus; Gram: neg
Chlamydia psittaci = details: expected efficacy against Chlamydia psittaci; Gram: n/a
Enterococcus faecalis = assay: Expected efficacy of antibiotic agents; details: expected efficacy against Enterococcus faecalis; Gram: pos
Acinetobacter lwoffii = assay: Expected efficacy of antibiotic agents; details: expected efficacy against Acinetobacter lwoffii; Gram: neg
[6] = system: Viridans group streptococci; assay: Expected efficacy of antibiotic agents; details: expected efficacy against Viridans group streptococci; Gram: pos
Clostridium perfringens = details: expected efficacy against Clostridium perfringens; Gram: anaer
Enterobacter sakazakii = assay: Expected efficacy of antibiotic agents; details: expected efficacy against Enterobacter sakazakii; Gram: neg
Haemophilus ducreyi = assay: Expected efficacy of antibiotic agents; details: expected efficacy against Haemophilus ducreyi; Gram: neg
Bordetella pertussis = assay: Expected efficacy of antibiotic agents; details: expected efficacy against Bordetella pertussis; Gram: neg
[7] = system: Corynebacterium urealyticum; assay: Expected efficacy of antibiotic agents; details: expected efficacy against Corynebacterium urealyticum; Gram: pos
Streptococcus pneumoniae = assay: Expected efficacy of antibiotic agents; details: expected efficacy against Streptococcus pneumoniae; Gram: pos
[8] = system: Staphylococcus aureus (MSSA); assay: Expected efficacy of antibiotic agents; details: expected efficacy against Staphylococcus aureus (MSSA); Gram: pos
Enterobacter cloacae = assay: Expected efficacy of antibiotic agents; details: expected efficacy against Enterobacter cloacae; Gram: neg
Streptococcus pyogenes = assay: Expected efficacy of antibiotic agents; details: expected efficacy against Streptococcus pyogenes; Gram: pos
Peptostreptococcus = assay: Expected efficacy of antibiotic agents; details: expected efficacy against Peptostreptococcus; Gram: pos
Chlamydia trachomatis = assay: Expected efficacy of antibiotic agents; details: expected efficacy against Chlamydia trachomatis; Gram: n/a
Streptococcus agalactiae = assay: Expected efficacy of antibiotic agents; details: expected efficacy against Streptococcus agalactiae; Gram: pos

SMILES: O=C(O)c1cn(C2CC2)c2cc(N3CCNCC3)c(F)cc2c1=O [Ciprofloxacin]
- Efficacy (Moraxella catarrhalis): yes
- Efficacy (Providencia rettgeri): yes
- Efficacy (Serratia marcescens): yes
- Efficacy (Bartonella bacilliformis): yes
- Efficacy (Salmonella typhi): yes
- Efficacy (Bacteroides fragilis): no
- Efficacy (Pseudomonas aeruginosa): yes
- Efficacy (Enterobacter aerogenes): yes
- Efficacy (Klebsiella oxytoca): yes
- Efficacy (Enterococcus faecium): no
- Efficacy (Neisseria gonorrhoeae): yes
- Efficacy (Proteus vulgaris): yes
- Efficacy [1]: yes
- Efficacy (Neisseria meningitidis): yes
- Efficacy (Francisella tularensis): yes
- Efficacy (Corynebacterium jeikeium): no
- Efficacy (Morganella morganii): yes
- Efficacy (Chlamydia pneumoniae): yes
- Efficacy (Escherichia coli): yes
- Efficacy (Pseudomonas fluorescens): yes
- Efficacy (Rickettsiae): yes
- Efficacy (Providencia stuartii): yes
- Efficacy (Citrobacter diversus): yes
- Efficacy (Legionella pneumophila): yes
- Efficacy (Campylobacter jejuni): yes
- Efficacy (Shigella boydii): yes
- Efficacy (Shigella sonnei): yes
- Efficacy (Yersinia pestis): yes
- Efficacy (Vibrio cholerae): yes
- Efficacy [2]: yes
- Efficacy (Shigella dysenteriae): yes
- Efficacy (Haemophilus influenzae): yes
- Efficacy (Shigella flexneri): yes
- Efficacy (Proteus mirabilis): yes
- Efficacy (Klebsiella pneumoniae): yes
- Efficacy [3]: no
- Efficacy (Citrobacter freundii): yes

SMILES: NC[C@H]1O[C@H](O[C@H]2[C@H](O)[C@@H](O[C@H]3O[C@H](CO)[C@@H](O)[C@H](N)[C@H]3O)[C@H](N)C[C@@H]2N)[C@H](N)C[C@@H]1O [Tobramycin]
- Efficacy (Moraxella catarrhalis): yes
- Efficacy (Serratia marcescens): yes
- Efficacy (Acinetobacter baumannii): no
- Efficacy (Mycoplasma pneumoniae): no
- Efficacy [4]: yes
- Efficacy (Bacteroides fragilis): no
- Efficacy (Pseudomonas aeruginosa): yes
- Efficacy (Enterobacter aerogenes): yes
- Efficacy (Klebsiella oxytoca): yes
- Efficacy (Enterococcus faecium): no
- Efficacy (Neisseria gonorrhoeae): no
- Efficacy (Proteus vulgaris): yes
- Efficacy [1]: no
- Efficacy (Neisseria meningitidis): no
- Efficacy (Clostridium difficile): no
- Efficacy (Corynebacterium jeikeium): no
- Efficacy [5]: no
- Efficacy (Chlamydia psittaci): no
- Efficacy (Chlamydia pneumoniae): no
- Efficacy (Escherichia coli): yes
- Efficacy (Pseudomonas fluorescens): yes
- Efficacy (Citrobacter diversus): yes
- Efficacy (Legionella pneumophila): no
- Efficacy (Enterococcus faecalis): no
- Efficacy (Acinetobacter lwoffii): no
- Efficacy [6]: no
- Efficacy (Campylobacter jejuni): yes
- Efficacy (Clostridium perfringens): no
- Efficacy (Shigella boydii): yes
- Efficacy (Enterobacter sakazakii): yes
- Efficacy (Shigella sonnei): yes
- Efficacy (Haemophilus ducreyi): yes
- Efficacy (Yersinia pestis): yes
- Efficacy (Vibrio cholerae): no
- Efficacy (Shigella dysenteriae): yes
- Efficacy (Bordetella pertussis): no
- Efficacy [7]: no
- Efficacy (Streptococcus pneumoniae): no
- Efficacy (Haemophilus influenzae): yes
- Efficacy [8]: no
- Efficacy (Shigella flexneri): yes
- Efficacy (Proteus mirabilis): yes
- Efficacy (Klebsiella pneumoniae): yes
- Efficacy (Enterobacter cloacae): yes
- Efficacy [3]: no
- Efficacy (Streptococcus pyogenes): no
- Efficacy (Peptostreptococcus): no
- Efficacy (Citrobacter freundii): yes
- Efficacy (Chlamydia trachomatis): no
- Efficacy (Streptococcus agalactiae): no
